Measured values: PMC6942202 (Bioorganic & medicinal chemistry letters, 2019)

Key:
NgGCYH-IB [1] = molecular target: T1, NgGCYH-IB (Neisseria gonorrhoeae, UniProt Q5F9K6); experiment: Inhibition of NgGCYH-IB enzyme activity; format: biochemical, N. gonorrhoeae; conditions: in words
NgGCYH-IB [2] = molecular target: T1, NgGCYH-IB; conditions: read-out: KM of NgGCYH-IB for GTP; cited from earlier work
HsGCYH-IA = molecular target: T2, HsGCYH-IA (Homo sapiens, UniProt P30793); experiment: Steady-state kinetic analysis of HsGCYH-IA; format: biochemical, H. sapiens; conditions: read-out: KM of HsGCYH-IA for GTP; fluorescence assay, GTP as substrate
T2 sequence (P30793 43-250 limits assumed): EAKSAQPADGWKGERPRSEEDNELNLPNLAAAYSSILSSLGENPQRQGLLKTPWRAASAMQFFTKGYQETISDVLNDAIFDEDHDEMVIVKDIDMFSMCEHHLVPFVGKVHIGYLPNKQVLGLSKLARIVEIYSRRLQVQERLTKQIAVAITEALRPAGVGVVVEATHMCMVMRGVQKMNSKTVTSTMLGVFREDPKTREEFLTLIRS

T1 sequence (Q5F9K6 whole entry): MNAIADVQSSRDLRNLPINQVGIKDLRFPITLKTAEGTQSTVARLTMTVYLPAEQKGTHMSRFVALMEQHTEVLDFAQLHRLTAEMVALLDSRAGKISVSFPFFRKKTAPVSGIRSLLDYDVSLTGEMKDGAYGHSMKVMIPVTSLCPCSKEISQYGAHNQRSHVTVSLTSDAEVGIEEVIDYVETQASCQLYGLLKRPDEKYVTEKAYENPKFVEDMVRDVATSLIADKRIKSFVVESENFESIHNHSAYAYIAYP

| Structure (SMILES) | Selectivity between HsGCYH-IA and NgGCYH-IB from IC50 values (NgGCYH-IB [1]) | Km (NgGCYH-IB [2]) [µM] | Km (HsGCYH-IA) [µM] |
| --- | --- | --- | --- |
| Nc1nc(OCCO)c2[nH]c(=O)n([C@@H]3O[C@H](CO)[C@@H](O)[C@H]3O)c2n1 [G1] | modest selectivity for HsGCYH-IA |  |  |
| Nc1nc(OC[C@H](O)CO)c2[nH]c(=O)n([C@@H]3O[C@H](CO)[C@@H](O)[C@H]3O)c2n1 [G3] | three-fold more potent against NgGCYH-IB |  |  |
| Nc1nc2c(ncn2[C@@H]2O[C@H](COP(=O)(O)OP(=O)(O)OP(=O)(O)O)[C@@H](O)[C@H]2O)c(=O)[nH]1 [GTP] |  | 9 | 867 ± 57 |
